The record followed here is paper PMC11855827, “High-Throughput Screening of Five Compound Libraries for Anthelmintic Activity and Toxicity Leads to the Discovery of Two Flavonoid Compounds” (International Journal of Molecular Sciences, 2025).

The test system of the experiment is C. elegans. The following applies: for Percentage of motility inhibition 0 h / Percentage of motility inhibition 24 h: Table S2, C. elegans SS assay, 110 μM, averages of 4 data points.

“And” between values parts separate entries of the source, which are not always exact repeats. Identical values can stand only once.

`C=C1C2CCC3(C4C[C@H]5C6(CCC[C@@]5(C)CN(CC)C46)[C@H]3[C@H]2O)[C@@H]1O` [Bullatine A]: the “Percentage of motility inhibition 0 h” value is on record as 0% and the “Percentage of motility inhibition 24 h” value is recorded as 3%.

As for `COc1cc(O)c2c(=O)cc(-c3ccccc3)oc2c1` [Tecto chrysin], the “Percentage of motility inhibition 0 h” value is 0% and the “Percentage of motility inhibition 24 h” value is 11%.

For the molecule Gypsogenin-3-O-glucuronide, the “Percentage of motility inhibition 0 h” value came to 50% and the “Percentage of motility inhibition 24 h” value is 10%.

Turning to `CC1(C)CC[C@]2(C(=O)O[C@@H]3O[C@H](CO)[C@@H](O)[C@H](O)[C@H]3O)CC[C@]3(C)C(=CC[C@@H]4[C@@]5(C)C[C@@H](O)[C@H](O)C(C)(C)[C@@H]5CC[C@]43C)[C@@H]2[C@@H]1O` [Arjunetin], the “Percentage of motility inhibition 0 h” value stood at 0% and the “Percentage of motility inhibition 24 h” value was found to be 18%.

For the molecule `CC(C)=CCC[C@](C)(O[C@@H]1O[C@H](CO[C@@H]2OC[C@@H](O)[C@H](O)[C@H]2O)[C@@H](O)[C@H](O)[C@H]1O)[C@H]1CC[C@]2(C)[C@@H]1[C@H](O)C[C@@H]1[C@@]3(C)CC[C@H](O)C(C)(C)[C@@H]3CC[C@]12C` [Gypenoside XIII], the “Percentage of motility inhibition 0 h” value is 7% and the “Percentage of motility inhibition 24 h” value turned out to be 13%.

On to `COc1ccc(C[C@@H]2COc3c(C)c(O)c(C)c(O)c3C2=O)cc1` [Methylophiopogonanone B], for which the “Percentage of motility inhibition 0 h” value was found to be 0% and the “Percentage of motility inhibition 24 h” value stood at 21%.

For the molecule `COc1cc(/C=C/C(=O)OC[C@H]2O[C@@H](O[C@@H]3[C@@H](O)[C@H](O)[C@@H](CO)O[C@H]3c3c(OC)cc4oc(-c5ccc(O)cc5)cc(=O)c4c3O)[C@H](O)[C@@H](O)[C@@H]2O)ccc1O` [6‴‐Feruloylspinosin], the “Percentage of motility inhibition 0 h” value is on record as 9% and the “Percentage of motility inhibition 24 h” value stood at 13%.

For `CC(C)NCC(O)COc1cccc2ccccc12.Cl` (stereo not drawn) [Propranolol (hydrochloride)], the “Percentage of motility inhibition 24 h” value was 51% and 35%.

Consider `C=C(CCC=C(C)C)[C@H]1CC[C@]2(C)[C@@H]1[C@H](O)C[C@@H]1[C@@]3(C)CC[C@H](O[C@@H]4O[C@H](CO)[C@@H](O)[C@H](O)[C@H]4O[C@@H]4O[C@H](CO)[C@@H](O)[C@H](O)[C@H]4O)C(C)(C)[C@@H]3CC[C@]12C` [Ginsenoside Rk1], for which the “Percentage of motility inhibition 0 h” value stood at 4% and the “Percentage of motility inhibition 24 h” value came to 0%.

Take `COc1ccc(-c2oc3c(CC=C(C)C)c(O[C@@H]4O[C@H](CO)[C@@H](O)[C@H](O)[C@H]4O)cc(O)c3c(=O)c2O[C@@H]2O[C@@H](C)[C@H](O)[C@@H](O)[C@H]2O[C@@H]2O[C@@H](C)[C@H](O)[C@@H](O)[C@H]2O)cc1` [Epmedin C]: the “Percentage of motility inhibition 0 h” value is reported as 0% and the “Percentage of motility inhibition 24 h” value was determined as 0%.

Regarding `CC(C)(CO)[C@@H](O)C(=O)NCCC(=O)[O-].[Na+]` [D-Pantothenic acid (sodium)], the “Percentage of motility inhibition 0 h” value was determined as 1% and the “Percentage of motility inhibition 24 h” value was 4%.

For the molecule `CC12CCC(CC1=O)C2(C)C` (stereo not drawn) [(+)-Camphor], the “Percentage of motility inhibition 0 h” value is 2% and 0%; the “Percentage of motility inhibition 24 h” value is 5% and 0%.

Consider `C=CC/C(=N/OS(=O)(=O)[O-])S[C@@H]1OC(CO)[C@@H](O)C(O)C1O.[K+]` (stereo partly drawn) [Sinigrin], for which the “Percentage of motility inhibition 0 h” value stood at 0% and the “Percentage of motility inhibition 24 h” value was found to be 0%.

Take `CC[C@@H](C(=O)[C@@H](C)[C@@H](O)[C@H](C)CCc1ccc(C)c(O)c1C(=O)[O-])[C@H]1O[C@](CC)([C@H]2CC[C@](O)(CC)[C@H](C)O2)C[C@@H]1C.[Na+]` [Lasalocid (sodium)]: the “Percentage of motility inhibition 0 h” value is given as 15% and the “Percentage of motility inhibition 24 h” value amounted to 4%.

For the molecule `C=C1[C@@H]2CC[C@H]3[C@]4(C)C[C@H](O[C@@H]5O[C@H](CO)[C@@H](OS(=O)(=O)O)[C@H](OS(=O)(=O)O)[C@H]5OC(=O)CC(C)C)CC(C(=O)[O-])(C(=O)[O-])[C@H]4CC[C@]3(C2)[C@H]1O.[K+].[K+]` [Carboxyatractyloside (dipotassium)], the “Percentage of motility inhibition 0 h” value was determined as 15% and the “Percentage of motility inhibition 24 h” value came out at 18%.

As for `Cn1nnc(-c2ccc(-c3ccc(N4C[C@@H](CO)OC4=O)cc3F)cn2)n1` [(S)‐Tedizolid], the “Percentage of motility inhibition 0 h” value was 26% and the “Percentage of motility inhibition 24 h” value was 5%.

Turning to `Nc1nc(/C(=C/CC(=O)O)C(=O)N[C@@H]2C(=O)N3C(C(=O)O)=CCS[C@H]23)cs1.O.O` [Ceftibuten (dihydrate)], the “Percentage of motility inhibition 0 h” value was found to be 19% and the “Percentage of motility inhibition 24 h” value is listed as 5%.

Regarding `C=C1[C@H]2C[C@H]2[C@]2(C)Cc3occ(C)c3[C@H](OC(C)=O)[C@@H]12` [Linderene acetate], the “Percentage of motility inhibition 0 h” value worked out at 8% and the “Percentage of motility inhibition 24 h” value worked out at 20%.

For `Oc1cccnc1` [3‐Hydroxypyr idine], the “Percentage of motility inhibition 0 h” value is given as 18% and the “Percentage of motility inhibition 24 h” value is recorded as 19%.

As to `COc1cccc2c1cc([N+](=O)[O-])c1c(C(=O)O)cc3c(c12)OCO3` [Aristolochic acid A], the “Percentage of motility inhibition 24 h” value is 22% and 11%.

In the case of `CC1(C)CC[C@]2(C(=O)O)CCC3=C([C@@H](CCl)C[C@@H]4[C@@]5(C)C[C@H](O)[C@H](O)[C@@](C)(C(=O)O)[C@@H]5CC[C@@]34C)[C@@H]2C1` [Tenuigenin], the “Percentage of motility inhibition 0 h” value turned out to be 11% and the “Percentage of motility inhibition 24 h” value is 11%.

In the case of `Cc1ncc(C[n+]2csc(CCO)c2C)c(N)n1.O=[N+]([O-])[O-]` [Thiamine nitrate], the “Percentage of motility inhibition 0 h” value stood at 12% and the “Percentage of motility inhibition 24 h” value was found to be 1%.

Turning to `C=CC(=C)CCCC(C)CCCC(C)CCCC(C)C` (stereo not drawn) [Neophytadiene], the “Percentage of motility inhibition 0 h” value was determined as 3% and the “Percentage of motility inhibition 24 h” value was 6%.

On to `C[C@H](CC[C@@H](O[C@@H]1O[C@H](CO[C@@H]2O[C@H](CO)[C@@H](O)[C@H](O)[C@H]2O)[C@@H](O)[C@H](O)[C@H]1O)C(C)(C)O)[C@H]1CC[C@@]2(C)[C@@H]3CC=C4[C@@H](CC[C@H](O[C@@H]5O[C@H](CO[C@@H]6O[C@H](CO)[C@@H](O)[C@H](O)[C@H]6O)[C@@H](O)[C@H](O)[C@H]5O)C4(C)C)[C@]3(C)[C@H](O)C[C@]12C` [Mogroside IV-A], for which the “Percentage of motility inhibition 0 h” value came out at 0% and the “Percentage of motility inhibition 24 h” value was 0%.

With `OCc1ccc(O)cn1` [2‐Hydroxymethyl‐5‐hydroxypyridine], the “Percentage of motility inhibition 0 h” value was found to be 0% and the “Percentage of motility inhibition 24 h” value came to 0%.

As to Avermectin B1 [reference compound], the “Inhibition (%) 110 μM (0 h)” value amounted to 81 ± 1%, the “Inhibition (%) 110 μM (24 h)” value was determined as 42 ± 1% and the “Percentage of motility inhibition 24 h” value is 41%.

Turning to `NC(=O)c1cc([N+](=O)[O-])cc([N+](=O)[O-])c1` [Nitromide], the “Percentage of motility inhibition 0 h” value is recorded as 25% and the “Percentage of motility inhibition 24 h” value is 12%.

With `O=C(O)[C@@H]1C[C@@H](O)CN1`, the “Percentage of motility inhibition 0 h” value is reported as 11% and the “Percentage of motility inhibition 24 h” value is listed as 0%.

As for `C[C@@H]1CC[C@]2(C(=O)O)CC[C@]3(C)C(=CC[C@@H]4[C@@]5(C)CC[C@H](O)[C@](C)(C(=O)O)[C@@H]5CC[C@]43C)[C@@H]2[C@]1(C)O` [Ilexgenin A], the “Percentage of motility inhibition 0 h” value was determined as 27% and the “Percentage of motility inhibition 24 h” value turned out to be 0%.
